Counter-ions that a name gives are not always drawn.
Molecular target: T1, p38alpha (Homo sapiens, UniProt Q16539)
T1 construct: purchased Invitrogen PV3304
Experiment: P38alpha Enzyme Inhibition Assay (Alphascreen kinase activity assay)
Format: biochemical
Details: 100 pM p38alpha, ATF-2 fusion protein substrate, 250 μM ATP, 2 hours preincubation at 25° C.; read-out: p38α inhibition
Experimental: P38alpha Enzyme Inhibition Assay
The inhibitory activity of compounds was determined using an Alphascreen® (Perkin Elmer) based kinase activity assay. Kinase reactions consisted of 25 mM HEPES pH 7.5, 10 mM MgCl2, 100 μM Na3VO4, 2 mM DTT, 0.05 mg/ml Tween 20, 100 pM p38alpha (Invitrogen, PV3304), 1% DMSO and 0.3 μg/ml ATF-2 fusion protein (New England Biolabs, 9224). Compounds were incubated under these conditions for 2 hours, at 25° C., prior to the initiation of the kinase activity by the addition of the 250 μM ATP. Reaction volumes were 20 uL. After 1 hr at 25° C. reactions were stopped by the adding 10 uL of 25 mM HEPES pH 7.5 containing 62.5 mM EDTA, 0.05% Triton X-100, 10% BSA and 0.83 ng/uL anti-phospho-ATF2 antibody (Abcam, ab28812). Detection was performed by measuring luminescence following the addition of Alphascreen Donor beads (Perkin Elmer 6765300) and Protein A Alphascreen Acceptor beads (Perkin Elmer 6760137), both at a final concentration of 20 ug/ml. IC50 values were determined from concentration-response curves.

T1 sequence (Q16539 whole entry): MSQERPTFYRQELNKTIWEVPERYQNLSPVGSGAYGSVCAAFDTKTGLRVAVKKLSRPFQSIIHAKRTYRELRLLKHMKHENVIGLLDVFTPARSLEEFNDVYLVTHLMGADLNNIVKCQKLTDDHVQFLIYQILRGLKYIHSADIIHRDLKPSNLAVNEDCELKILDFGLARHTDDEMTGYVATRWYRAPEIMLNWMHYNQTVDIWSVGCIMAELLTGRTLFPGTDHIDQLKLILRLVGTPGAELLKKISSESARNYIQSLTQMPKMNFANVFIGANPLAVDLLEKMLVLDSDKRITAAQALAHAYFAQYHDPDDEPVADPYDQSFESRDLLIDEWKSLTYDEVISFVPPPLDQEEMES

Row | IC50 | SMILES
1 | < 10 nM | Cc1ccc(-n2nc(C(C)(C)C)cc2NC(=O)N[C@@H]2C[C@@H](Sc3ccc4nnc(C(C)C)n4c3)c3ccccc32)cc1 (racemic) [Example 3, (±)-trans-1-(5-tert-Butyl-2-p-tolyl-2H-pyrazol-3-yl)-3-[3-(3-isopropyl-[1,2,4]triazolo[4,3-a]pyridin-6-ylsulfanyl)-indan-1-yl]-urea]
2 | < 10 nM | CC(C)c1nnc2ccc(O[C@@H]3CC[C@H](NC(=O)Nc4cc(C(C)(C)C)nn4-c4ccccc4)c4ccccc43)cn12 [Example 1, 1-(5-tert-Butyl-2-phenyl-2H-pyrazol-3-yl)-3-[(1S,4R)-4-(3-isopropyl-[1,2,4]triazolo[4,3-a]pyridin-6-yloxy)-1,2,3,4-tetrahydro-naphthalen-1-yl]-urea]
3 | < 10 nM | CC(C)c1nnc2ccc(O[C@H]3CC[C@H](NC(=O)NC4CC4)c4ccccc43)cn12 [Example 2, 1-Cyclopropyl-3-[(1S,4S)-4-(3-isopropyl-[1,2,4]triazolo[4,3-a]pyridin-6-yloxy)-1,2,3,4-tetrahydro-naphthalen-1-yl]-urea]
4 | < 10 nM | Cc1ccc(-n2nc(C(C)(C)C)cc2NC(=O)N[C@H]2CC[C@@H](Oc3ccc4nnc(-c5cccc(OCCN6CCOCC6)c5)n4c3)c3ccccc32)cc1 [Example 4, 1-(5-tert-Butyl-2-p-tolyl-2H-pyrazol-3-yl)-3-[(1S,4R)-4-{3-[3-(2-morpholin-4-yl-ethoxy)-phenyl]-[1,2,4]triazolo[4,3-a]pyridin-6-yloxy}-1,2,3,4-tetrahydro-naphthalen-1-yl)-urea]
5 | < 10 nM | Cc1ccc(-n2nc(C(C)(C)C)cc2NC(=O)N[C@H]2CC[C@@H](Oc3ccn4c(C(C)C)nnc4c3)c3ccccc32)cc1 [Example 5, 1-(5-tert-Butyl-2-p-tolyl-2H-pyrazol-3-yl)-3-[(1S,4R)-4-(3-isopropyl-[1,2,4]triazolo[4,3-a]pyridin-7-yloxy)-1,2,3,4-tetrahydro-naphthalen-1-yl]-urea]
6 | < 10 nM | CC(C)c1nnc2ccc(O[C@@H]3CC[C@H](NC(=O)Nc4cc(C(C)(C)C)nn4-c4cccc(OCCN5CCOCC5)c4)c4ccccc43)cn12 [Example 6, 1-{5-tert-Butyl-2-[3-(2-morpholin-4-yl-ethoxy)-phenyl]-2H-pyrazol-3-yl}-3-[(1S,4R)-4-(3-isopropyl-[1,2,4]triazolo[4,3-a]pyridin-6-yloxy)-1,2,3,4-tetrahydro-naphthalen-1-yl]-urea]
7 | < 10 nM | Cc1ccc(-n2nc(C(C)(C)C)cc2NC(=O)N[C@H]2CC[C@@H](Oc3ccc4nnc(-c5ccccc5O)n4c3)c3ccccc32)cc1 [Example 7, 1-(5-tert-Butyl-2-p-tolyl-2H-pyrazol-3-yl)-3-{(1S,4R)-4-(3-(2-hydroxy-phenyl)-[1,2,4]triazolo[4,3-a]pyridin-6-yloxy)-1,2,3,4-tetrahydro-naphthalen-1-yl}-urea]
8 | < 10 nM | CC(C)c1nnc2ccc(O[C@H]3C[C@H](NC(=O)Nc4cc(C(C)(C)C)on4)c4ccccc43)cn12 [Example 8, 1-(5-tert-Butyl-isoxazol-3-yl)-3-[(1S,3S)-3-(3-isopropyl-[1,2,4]triazolo[4,3-a]pyridin-6-yloxy)-indan-1-yl]-urea]
9 | < 10 nM | COCC(=O)Nc1cc(CO[C@@H]2CC[C@H](NC(=O)Nc3cc(C(C)(C)C)nn3-c3ccc(C)cc3)c3ccccc32)ccn1 [Example 9, N-(4-{(1R,4S)-4-[3-(5-tert-Butyl-2-p-tolyl-2H-pyrazol-3-yl)-ureido]-1,2,3,4-tetrahydro-naphthalen-1-yloxymethyl}-pyridin-2-yl)-2-methoxy-acetamide]
10 | < 10 nM | Cc1ccc(-n2nc(C(C)(C)C)cc2NC(=O)N[C@H]2CC[C@@H](Oc3ccc4nnc(-c5ccccc5SCCO)n4c3)c3ccccc32)cc1 [Example 10]
11 | < 10 nM | CC(C)c1nnc2ccc(O[C@@H]3CC[C@H](NC(=O)Nc4cc(C(C)(C)C)nn4-c4cccc(OCCN(C)C)c4)c4ccccc43)cn12 [Example 11, 1-{5-tert-Butyl-2-[3-(2-dimethylamino-ethoxy)-phenyl]-2H-pyrazol-3-yl}-3-[(1S,4R)-4-(3-isopropyl-[1,2,4]triazolo[4,3-a]pyridin-6-yloxy)-1,2,3,4-tetrahydro-naphthalen-1-yl]-urea]
12 | < 10 nM | CC(C)c1nnc2ccc(O[C@@H]3CC[C@H](NC(=O)Nc4cc(C(C)(C)C)nn4-c4ccc(O)c(Cl)c4)c4ccccc43)cn12 [Example 12, 1-[5-tert-Butyl-2-(3-chloro-4-hydroxy-phenyl)-2H-pyrazol-3-yl]-3-[(1S,4R)-4-(3-isopropyl-[1,2,4]triazolo[4,3-a]pyridin-6-yloxy)-1,2,3,4-tetrahydro-naphthalen-1-yl]-urea]
13 | 10 to 100 nM | CC(C)c1nnc2ccc(O[C@@H]3CC[C@H](NC(=O)NC4CC4)c4ccccc43)cn12 [Example 13, 1-Cyclopropyl-3-[(1S,4R)-4-(3-isopropyl-[1,2,4]triazolo[4,3-a]pyridin-6-yloxy)-1,2,3,4-tetrahydro-naphthalen-1-yl]-urea]
14 | < 10 nM | CC(C)c1nnc2ccc(O[C@@H]3CC[C@H](NC(=O)Nc4cc(C(C)(C)C)nn4-c4ccc(Cl)c(O)c4)c4ccccc43)cn12 [Example 14, 1-(5-tert-Butyl-2-(4-chloro-3-hydroxyphenyl)-2H-pyrazol-3-yl)-3-[(1S,4R)-4-(3-isopropyl-[1,2,4]triazolo[4,3-a]pyridin-6-yloxy)-1,2,3,4-tetrahydronaphthalen-1-yl]-urea]
15 | < 10 nM | CC(C)c1nnc2ccc(O[C@@H]3CC[C@H](NC(=O)Nc4cc(C(C)(C)C)nn4-c4ccc(O)cc4)c4ccccc43)cn12 [Example 15, 1-[5-tert-Butyl-2-(4-hydroxy-phenyl)-2H-pyrazol-3-yl]-3-[(1S,4R)-4-(3-isopropyl-[1,2,4]triazolo[4,3-a]pyridin-6-yloxy)-1,2,3,4-tetrahydro-naphthalen-1-yl]-urea]
16 | < 10 nM | Cc1ccc(-n2nc(C(C)(C)C)cc2NC(=O)N[C@H]2CC[C@@H](Oc3ccc4nnc(C(C)(C)C)n4c3)c3ccccc32)cc1 [Example 16, 1-(5-tert-Butyl-2-p-tolyl-2H-pyrazol-3-yl)-3-[(1S,4R)-4-(3-tert-butyl-[1,2,4]triazolo[4,3-a]pyridin-6-yloxy)-1,2,3,4-tetrahydro-naphthalen-1-yl]-urea]
17 | < 10 nM | CC(C)c1nnc2ccc(O[C@@H]3CC[C@H](NC(=O)Nc4cc(C(C)(C)C)on4)c4ccccc43)cn12 [Example 17, 1-(5-tert-Butyl-isoxazol-3-yl)-3-[(1S,4R)-4-(3-isopropyl-[1,2,4]triazolo[4,3-a]pyridin-6-yloxy)-1,2,3,4-tetrahydro-naphthalen-1-yl]-urea]
18 | < 10 nM | Cc1ccc(-n2nc(C(C)(C)C)cc2NC(=O)N[C@H]2CC[C@@H](Oc3ccc4nnc(C5CCCC5)n4c3)c3ccccc32)cc1 [Example 18, 1-(5-tert-Butyl-2-p-tolyl-2H-pyrazol-3-yl)-3-[(1S,4R)-4-(3-cyclopentyl-[1,2,4]triazolo[4,3-a]pyridin-6-yloxy)-1,2,3,4-tetrahydro-naphthalen-1-yl]-urea]
19 | < 10 nM | CC(C)c1nnc2ccc(O[C@@H]3CC[C@H](NC(=O)Nc4cc(C(C)(C)C)nn4-c4cccc(CN5CCOCC5)c4)c4ccccc43)cn12 [Example 19, 1-[5-tert-Butyl-2-(3-morpholin-4-ylmethyl-phenyl)-2H-pyrazol-3-yl]-3-[(1S,4R)-4-(3-isopropyl-[1,2,4]triazolo[4,3-a]pyridin-6-yloxy)-1,2,3,4-tetrahydro-naphthalen-1-yl]-urea, formic acid salt]
20 | < 10 nM | Cc1ccc(-n2nc(C(C)(C)C)cc2NC(=O)N[C@H]2CC[C@@H](Oc3ccc4nnc(-c5c(Cl)cccc5Cl)n4c3)c3ccccc32)cc1 [Example 20]
21 | < 10 nM | Cc1ccc(-n2nc(C(C)(C)C)cc2NC(=O)N[C@H]2CC[C@@H](Oc3ccc4nnc(C5CC5)n4c3)c3ccccc32)cc1 [Example 21, 1-(5-tert-Butyl-2-p-tolyl-2H-pyrazol-3-yl)-3-[(1S,4R)-4-(3-cyclopropyl-[1,2,4]triazolo[4,3-a]pyridin-6-yloxy)-1,2,3,4-tetrahydro-naphthalen-1-yl}-urea]
22 | < 10 nM | Cc1ccc(-n2nc(C(C)(C)C)cc2NC(=O)N[C@H]2CC[C@@H](Oc3ccc4nnc(-c5ccccn5)n4c3)c3ccccc32)cc1 [Example 22, 1-(5-tert-Butyl-2-p-tolyl-2H-pyrazol-3-yl)-3-[(1S,4R)-4-(3-pyridin-2-yl-[1,2,4]triazolo[4,3-a]pyridin-6-yloxy)-1,2,3,4-tetrahydro-naphthalen-1-yl}-urea]
23 | < 10 nM | Cc1ccc(-n2nc(C(C)(C)C)cc2NC(=O)N[C@H]2CC[C@@H](Oc3ccc4nnc(-c5ccccc5Cl)n4c3)c3ccccc32)cc1 [Example 23]
24 | < 10 nM | Cc1ccc(-n2nc(C(C)(C)C)cc2NC(=O)N[C@H]2CC[C@@H](Oc3ccc4nnc(-c5ccccc5OCc5ccccc5)n4c3)c3ccccc32)cc1 [Example 24, 1-{(1S,4R)-4-[3-(2-Benzyloxy-phenyl)-[1,2,4]triazolo[4,3-a]pyridin-6-yloxy)-1,2,3,4-tetrahydro-naphthalen-1-yl}-3-(5-tert-butyl-2-p-tolyl-2H-pyrazol-3-yl)-urea]
25 | < 10 nM | CC(C)c1nnc2ccc(O[C@H]3CC[C@H](NC(=O)Nc4cc(C(C)(C)C)nn4-c4ccc(O)c(Cl)c4)c4ccccc43)cn12 [Example 25, 1-[5-tert-Butyl-2-(3-chloro-4-hydroxy-phenyl)-2H-pyrazol-3-yl]-3-[(1S,4S)-4-(3-isopropyl-[1,2,4]triazolo[4,3-a]pyridin-6-yloxy)-1,2,3,4-tetrahydro-naphthalen-1-yl]-urea]
